Earlier results, collected in patent US20230357868A1 (priority 2021, published 2023).

Assays:
[1] = system: potato spindle tuber viroid (PSTVd); conditions: LAMP reaction
[2] = LAMP visualization reagent

Structure (SMILES) | Effect on amplification [1] | Toxicity [2]
O=S(=O)([O-])c1ccc2c(N=Nc3c(O)cc(S(=O)(=O)[O-])c4ccccc34)c(O)c(S(=O)(=O)[O-])cc2c1.[Na+].[Na+].[Na+] [Hydroxynaphthol blue (HNB)] | None | May cause eye irritation
O=P([O-])([O-])OP(=O)([O-])[O-].[Mg+2].[Mg+2] [Mg-pyrophosphate (Mg-PPi)] | None | –
CCCN(CCCN(C)C)c1cc(/C=C2/Sc3ccccc3N2C)c2ccccc2[n+]1-c1ccccc1 [SYBR Green I] | Not inhibiting when used 0.5-1x | Mutation enhancer
